Data from patent US10980809B2, “Urea-substituted aromatic ring-linked dioxane-quinazoline and -linked dioxane-quinoline compounds, preparation method therefor and use thereof” (BEIJING SCITECH-MQ PHARMACEUTICALS LIMITED, priority 2017, dated 2021).

Each compound was assayed against VEGFR-2 kinase (Homo sapiens (Human), UniProt P35968) (assay: Test of small molecule compounds for inhibiting the activity of VEGFR-2 kinase). Conditions: class symbols A-D.
Type: biochemical
Method: Test of Small Molecule Compounds for Inhibiting the Activity of VEGFR-2 Kinase
The test was carried out as follows:
2. 2.5 μl of the gradient-diluted compounds was taken with a transfer pipette to a 384-well plate,
3. Addition of enzyme: 5 μl of 2×VEGFR-2 kinase was taken with a transfer pipette to the corresponding reaction well of the 384-well plate, which was mixed and pre-reacted at room temperature for 30 min,
5. Negative control: 2.5 μl/well 4× substrate/ATP Mix and 7.5 μl 1× Kinase Assay Buffer were added to the wells of the 384-well plate,
Positive control: 2.5 μl/well 4× substrate/ATP Mix, 2.5 μl/well 1× Kinase Assay Buffer containing 4% DMSO, and 5 μl/well 2×VEGFR-2 solution were added to the 384-well plate. The final concentration of DMSO in the reaction system is […],
6. The mixture was mixed well and then centrifuged and reacted at room temperature in dark for 60 min,
9. The 384-well plate was placed into the Envision plate reader and the signal was detected using the appropriate program,

VEGFR-2 kinase, sequence (P35968 20-1356): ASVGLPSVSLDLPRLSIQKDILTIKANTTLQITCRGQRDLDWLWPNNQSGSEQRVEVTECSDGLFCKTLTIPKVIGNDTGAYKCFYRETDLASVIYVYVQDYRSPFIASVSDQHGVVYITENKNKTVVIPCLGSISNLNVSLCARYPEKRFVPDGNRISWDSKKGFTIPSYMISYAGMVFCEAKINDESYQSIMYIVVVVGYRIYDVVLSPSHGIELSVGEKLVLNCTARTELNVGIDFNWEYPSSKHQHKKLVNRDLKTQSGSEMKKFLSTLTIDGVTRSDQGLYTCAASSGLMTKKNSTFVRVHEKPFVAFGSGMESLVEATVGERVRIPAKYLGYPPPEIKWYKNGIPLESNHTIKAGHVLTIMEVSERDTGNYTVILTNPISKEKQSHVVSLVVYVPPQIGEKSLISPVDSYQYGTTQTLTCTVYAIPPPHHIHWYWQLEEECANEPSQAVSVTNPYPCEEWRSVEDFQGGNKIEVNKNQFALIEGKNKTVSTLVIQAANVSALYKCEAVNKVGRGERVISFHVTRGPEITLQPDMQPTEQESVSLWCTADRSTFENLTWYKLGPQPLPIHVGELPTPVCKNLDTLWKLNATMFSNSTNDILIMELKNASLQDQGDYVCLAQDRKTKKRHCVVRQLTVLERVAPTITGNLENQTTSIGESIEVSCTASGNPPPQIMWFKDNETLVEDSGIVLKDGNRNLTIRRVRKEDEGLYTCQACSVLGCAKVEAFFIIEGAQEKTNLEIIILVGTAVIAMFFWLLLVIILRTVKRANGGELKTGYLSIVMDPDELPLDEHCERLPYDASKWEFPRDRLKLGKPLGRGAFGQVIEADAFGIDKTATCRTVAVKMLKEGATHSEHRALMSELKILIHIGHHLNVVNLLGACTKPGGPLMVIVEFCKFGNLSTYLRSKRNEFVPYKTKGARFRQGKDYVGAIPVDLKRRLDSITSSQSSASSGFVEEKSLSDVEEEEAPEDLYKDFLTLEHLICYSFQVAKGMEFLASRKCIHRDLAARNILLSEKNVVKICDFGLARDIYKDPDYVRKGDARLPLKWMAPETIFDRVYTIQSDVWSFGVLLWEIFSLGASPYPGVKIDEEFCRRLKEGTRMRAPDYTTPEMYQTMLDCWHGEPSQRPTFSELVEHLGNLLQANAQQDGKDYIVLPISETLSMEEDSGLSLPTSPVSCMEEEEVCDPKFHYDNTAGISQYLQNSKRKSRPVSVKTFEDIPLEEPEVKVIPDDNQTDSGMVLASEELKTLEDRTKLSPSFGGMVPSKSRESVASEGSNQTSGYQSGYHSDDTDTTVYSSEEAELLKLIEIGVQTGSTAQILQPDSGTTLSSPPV

Compound	IC50 [µM]
COc1cc2ncnc(Nc3ccc(NC(=O)NC4CC4)cc3)c2c2c1OCCO2 [Example 1, 1-(4-((5-methoxy-2,3-dihydro-[1,4]dioxino[2,3-f]quinazolin-10-yl)amino)phenyl)-3-cyclopropylurea]	0.05 to 0.5
COc1cccc(NC(=O)Nc2ccc(Nc3ncnc4cc(OC)c5c(c34)OCCO5)cc2)c1 [Example 3, 1-(4-((5-methoxy-2,3-dihydro-[1,4]dioxino[2,3-f]quinazolin-10-yl)amino)phenyl)-3-(3-methoxyphenyl)urea]	0.05 to 0.5
COc1cc2ncnc(Nc3ccc(NC(=O)Nc4ccccn4)c(Cl)c3)c2c2c1OCCO2 [Example 5, 1-(2-chloro-4-((5-methoxy-2,3-dihydro-[1,4]dioxino[2,3-f]quinazolin-10-yl)amino)phenyl)-3-(pyridin-2-yl)urea]	> 5
COc1cc2ncnc(Nc3ccc(NC(=O)Nc4ccccc4)c(Cl)c3)c2c2c1OCCO2 [Example 6, 1-(2-chloro-4-((5-methoxy-2,3-dihydro-[1,4]dioxino[2,3-f]quinazolin-10-yl)amino)phenyl)-3-phenylurea]	0.05 to 0.5
COc1cc2ncnc(Nc3ccc(NC(=O)Nc4cc(C)no4)c(Cl)c3)c2c2c1OCCO2 [Example 8, 1-(2-chloro-4-((5-methoxy-2,3-dihydro-[1,4]dioxino[2,3-f]quinazolin-10-yl)amino)phenyl)-3-(3-methylisoxazol-5-yl)urea]	0.05 to 0.5
COc1cc2ncnc(Nc3ccc(NC(=O)NC(C)C)c(Cl)c3)c2c2c1OCCO2 [Example 9, 1-(2-chloro-4-((5-methoxy-2,3-dihydro-[1,4]dioxino[2,3-f]quinazolin-10-yl)amino)phenyl)-3-isopropylurea]	0.05 to 0.5
COc1cc2ncnc(Nc3ccc(NC(=O)Nc4ccc(Oc5ccccc5)cc4)c(Cl)c3)c2c2c1OCCO2 [Example 13, 1-(2-chloro-4-((5-methoxy-2,3-dihydro-[1,4]dioxino[2,3-f]quinazolin-10-yl)amino)phenyl)-3-(4-(phenoxy)phenyl)urea]	> 5
COc1cc2ncnc(Nc3ccc(NC(=O)NC4CCC4)c(Cl)c3)c2c2c1OCCO2 [Example 27, 1-(2-chloro-4-((5-methoxy-2,3-dihydro-[1,4]dioxino[2,3-f]quinazolin-10-yl)amino)phenyl)-3-cyclobutylurea]	< 0.05
COc1cc2ncnc(Nc3ccc(NC(=O)NC4CCCC4)c(Cl)c3)c2c2c1OCCO2 [Example 28, 1-(2-chloro-4-((5-methoxy-2,3-dihydro-[1,4]dioxino[2,3-f]quinazolin-10-yl)amino)phenyl)-3-cyclopentylurea]	0.05 to 0.5
COc1cc2ncnc(Nc3ccc(NC(=O)NC4CCCCC4)c(Cl)c3)c2c2c1OCCO2 [Example 29, 1-(2-chloro-4-((5-methoxy-2,3-dihydro-[1,4]dioxino[2,3-f]quinazolin-10-yl)amino)phenyl)-3-cyclohexylurea]	0.5 to 5
COc1cc2ncnc(Nc3ccc(NC(=O)NCCC(C)C)c(Cl)c3)c2c2c1OCCO2 [Example 30, 1-(2-chloro-4-((5-methoxy-2,3-dihydro-[1,4]dioxino[2,3-f]quinazolin-10-yl)amino)phenyl)-3-isopentylurea]	< 0.05
O=C(Nc1ccc(Oc2ncnc3cc(OCCCN4CCOCC4)c4c(c23)OCCO4)cc1)Nc1cccc2ccccc12 [Example 31, 1-(4-((5-(3-morpholinopropoxy)-2,3-dihydro-[1,4]dioxino[2,3-f]quinazolin-10-yl)oxy)phenyl)-3-(naphthalen-1-yl)urea]	< 0.05
COc1cc2ncnc(Oc3ccc(NC(=O)NC4CCCC4)c(Cl)c3)c2c2c1OCCO2 [Example 32, 1-(2-chloro-4-((5-methoxy-2,3-dihydro-[1,4]dioxino[2,3-f]quinazolin-10-yl)oxy)phenyl)-3-cyclopentylurea]	< 0.05
COc1cc2ncnc(Oc3ccc(NC(=O)NC4CCCCC4)c(Cl)c3)c2c2c1OCCO2 [Example 33, 1-(2-chloro-4-((5-methoxy-2,3-dihydro-[1,4]dioxino[2,3-f]quinazolin-10-yl)oxy)phenyl)-3-cyclohexylurea]	< 0.05
COCCOc1cc2ncnc(Nc3ccc(NC(=O)NC4CC4)c(Cl)c3)c2c2c1OCCO2 [Example 34, 1-(2-chloro-4-((5-(2-methoxyethoxy)-2,3-dihydro-[1,4]dioxino[2,3-f]quinazolin-10-yl)amino)phenyl)-3-cyclopropylurea]	< 0.05
COCCOc1cc2ncnc(Nc3ccc(NC(=O)Nc4cccc(OC)c4)c(Cl)c3)c2c2c1OCCO2 [Example 35, 1-(2-chloro-4-((5-(2-methoxyethoxy)-2,3-dihydro-[1,4]dioxino[2,3-f]quinazolin-10-yl)amino)phenyl)-3-(3-methoxyphenyl)urea]	< 0.05
COCCOc1cc2ncnc(Nc3ccc(NC(=O)Nc4ccccn4)c(Cl)c3)c2c2c1OCCO2 [Example 36, 1-(2-chloro-4-((5-(2-methoxyethoxy)-2,3-dihydro-[1,4]dioxino[2,3-f]quinazolin-10-yl)amino)phenyl)-3-(pyridin-2-yl)urea]	> 5
COCCOc1cc2ncnc(Nc3ccc(NC(=O)Nc4ccccc4)c(Cl)c3)c2c2c1OCCO2 [Example 37, 1-(2-chloro-4-((5-(2-methoxyethoxy)-2,3-dihydro-[1,4]dioxino[2,3-f]quinazolin-10-yl)amino)phenyl)-3-phenylurea]	< 0.05
COCCOc1cc2ncnc(Nc3ccc(NC(=O)Nc4ccc(F)cc4)c(Cl)c3)c2c2c1OCCO2 [Example 38, 1-(2-chloro-4-((5-(2-methoxyethoxy)-2,3-dihydro-[1,4]dioxino[2,3-f]quinazolin-10-yl)amino)phenyl)-3-(4-fluorophenyl)urea]	< 0.05
COCCOc1cc2ncnc(Nc3ccc(NC(=O)Nc4cc(C)no4)c(Cl)c3)c2c2c1OCCO2 [Example 39, 1-(2-chloro-4-((5-(2-methoxyethoxy)-2,3-dihydro-[1,4]dioxino[2,3-f]quinazolin-10-yl)amino)phenyl)-3-(3-methylisoxazol-5-yl)urea]	< 0.05

More lines, now with the values ahead:

IC50 [µM]	Compound
< 0.05	COc1cc2ncnc(Nc3ccc(NC(=O)NC4CC4)c(Cl)c3)c2c2c1OCCO2 [Example 2, 1-(2-chloro-4-((5-methoxy-2,3-dihydro-[1,4]dioxino[2,3-f]quinazolin-10-yl)amino)phenyl)-3-cyclopropylurea]
< 0.05	COc1cccc(NC(=O)Nc2ccc(Nc3ncnc4cc(OC)c5c(c34)OCCO5)cc2Cl)c1 [Example 4, 1-(2-chloro-4-((5-methoxy-2,3-dihydro-[1,4]dioxino[2,3-f]quinazolin-10-yl)amino)phenyl)-3-(3-methoxyphenyl)urea]
< 0.05	COc1cc2ncnc(Nc3ccc(NC(=O)Nc4ccc(F)cc4)c(Cl)c3)c2c2c1OCCO2 [Example 7, 1-(2-chloro-4-((5-methoxy-2,3-dihydro-[1,4]dioxino[2,3-f]quinazolin-10-yl)amino)phenyl)-3-(4-fluorophenyl)urea]
< 0.05	COc1cc(NC(=O)Nc2ccc(Nc3ncnc4cc(OC)c5c(c34)OCCO5)cc2Cl)ccn1 [Example 10, 1-(2-chloro-4-((5-methoxy-2,3-dihydro-[1,4]dioxino[2,3-f]quinazolin-10-yl)amino)phenyl)-3-(2-methoxypyridin-4-yl)urea]
< 0.05	COc1cc2ncnc(Nc3ccc(NC(=O)Nc4ccc(C(F)(F)F)cc4F)c(Cl)c3)c2c2c1OCCO2 [Example 12, 1-(2-chloro-4-((5-methoxy-2,3-dihydro-[1,4]dioxino[2,3-f]quinazolin-10-yl)amino)phenyl)-3-(2-fluoro-4-(trifluoromethyl)phenyl)urea]
< 0.05	COc1cc2ncnc(Oc3ccc(NC(=O)Nc4ccccc4)c(Cl)c3)c2c2c1OCCO2 [Example 14, 1-(2-chloro-4-((5-methoxy-2,3-dihydro-[1,4]dioxino[2,3-f]quinazolin-10-yl)oxy)phenyl)-3-phenylurea]
< 0.05	COc1cc2ncnc(Oc3ccc(NC(=O)NC(C)C)c(Cl)c3)c2c2c1OCCO2 [Example 15, 1-(2-chloro-4-((5-methoxy-2,3-dihydro-[1,4]dioxino[2,3-f]quinazolin-10-yl)oxy)phenyl)-3-isopropylurea]
< 0.05	COc1cc2ncnc(Oc3ccc(NC(=O)Nc4ccc(F)cc4)c(Cl)c3)c2c2c1OCCO2 [Example 16, 1-(2-chloro-4-((5-methoxy-2,3-dihydro-[1,4]dioxino[2,3-f]quinazolin-10-yl)oxy)phenyl)-3-(4-fluorophenyl)urea]
< 0.05	COc1cc2ncnc(Oc3ccc(NC(=O)Nc4ccc(F)cc4F)c(F)c3)c2c2c1OCCO2 [Example 21, 1-(2,4-difluorophenyl)-3-(2-fluoro-4-((5-methoxy-2,3-dihydro-[1,4]dioxino[2,3-f]quinazolin-10-yl)oxy)phenyl)urea]
< 0.05	COc1cc2ncnc(Oc3ccc(NC(=O)NC4CC4)c(Cl)c3)c2c2c1OCCO2 [Example 22, 1-(2-chloro-4-((5-methoxy-2,3-dihydro-[1,4]dioxino[2,3-f]quinazolin-10-yl)oxy)phenyl)-3-cyclopropylurea]
< 0.05	COc1cccc(NC(=O)Nc2ccc(Oc3ncnc4cc(OC)c5c(c34)OCCO5)c(Cl)c2)c1 [Example 24, 1-(3-chloro-4-((5-methoxy-2,3-dihydro-[1,4]dioxino[2,3-f]quinazolin-10-yl)oxy)phenyl)-3-(3-methoxyphenyl)urea]
< 0.05	COc1cc(NC(=O)Nc2ccc(Oc3ncnc4cc(OC)c5c(c34)OCCO5)c(Cl)c2)ccn1 [Example 26, 1-(3-chloro-4-((5-methoxy-2,3-dihydro-[1,4]dioxino[2,3-f]quinazolin-10-yl)oxy)phenyl)-3-(2-methoxypyridin-4-yl)urea]
